Assay results: patent US4751215A, “Process for increasing the sexual activity of birds and useful domestic mammals and for preparing spermatozoa suitable to their propagation” (INNOFINANCE Altalanos Innovacios Penzintezet, priority 1985, dated 1988)

What was measured:
Type in all cases: in vivo
[1] = test system: ganders; assay: Copulation activity / libido of ganders (Table 6); conditions: for No. of daily copulations: Treated (n = 10)
Procedure: (§1) Ganders kept under large-scale conditions and propagated in a natural way were treated with 0.5 μg/kg of D-Phe^6,desGly^10 -GnRH ethylamide analogue every 2 days, altogether 3 times. […] This manifested itself in the rise of the copulation activity (Table 6).

[2] = test system: ganders; assay: Sperm production and sperm quality of ganders kept under natural conditions (Table 7)
Procedure: "Hungarian" and "Landes" ganders kept under natural conditions and divided to small groups were treated with 0.5 μg/kg of D-Phe^6,desGly^10 -GnRH ethylamide analogue every 2 days, altogether 3 times.

[3] = test system: blood plasma testosterone level; assay: Blood plasma testosterone level of ganders (Table 6); conditions: for Testosterone: Treated (n = 10)
Procedure: as §1

[4] = test system: male turkeys; assay: Effect of gonadoliberin analogues on the sperm production of male turkeys (Table 5)
Excerpt: In a further experiment, the sperm production of male turkeys was raised by administering the following four compounds: […]

[5] = test system: male angora rabbits; assay: Enhancement of the sperm production of male rabbits; conditions: 3 μg every 2 days, 3 times
Procedure: In this experiment male angora rabbits showing a low libido were used from which no sperm could be obtained. The motility of the cells in their sperm was lower than 75%; thus, these animals could not be used for propagating. Of these animals 234 were treated with 3 μg of D-Phe^6,desGly^10 -GnRH ethylamide analogue every 2 days, altogether 3 times. […] These effects could be observed for several weeks; thus, the amount of the sperm usable for artificial insemination increased to its 2.5-fold value.

[6] = 0.5 μg/kg every 2 days, 3 times
[7] = "Hungarian" ganders, sampling February 7
[8] = "Hungarian" ganders, sampling February 14
[9] = "Hungarian" ganders, sampling February 21
[10] = "Hungarian" ganders, sampling February 28
[11] = "Hungarian" ganders, sampling January 15 (before treatment)
[12] = "Hungarian" ganders, sampling January 31
[13] = "Hungarian" ganders, sampling March 7
[14] = "Hungarian" ganders, sampling March 12
[15] = "Landes" ganders, sampling February 7
[16] = "Landes" ganders, sampling February 14
[17] = "Landes" ganders, sampling February 21
[18] = "Landes" ganders, sampling February 28
[19] = "Landes" ganders, sampling January 15 (before treatment)
[20] = "Landes" ganders, sampling January 31
[21] = "Landes" ganders, sampling March 7
[22] = "Landes" ganders, sampling March 12
[23] = at the beginning of the experiment

CCNC(=O)[C@@H]1CCCN1C(=O)[C@H](CCCNC(=N)N)NC(=O)[C@H](CC(C)C)NC(=O)[C@@H](Cc1ccccc1)NC(=O)[C@H](Cc1ccc(O)cc1)NC(=O)[C@H](CO)NC(=O)[C@H](Cc1c[nH]c2ccccc12)NC(=O)[C@H](Cc1c[nH]cn1)NC(=O)[C@@H]1CCC(=O)N1 [Compound "C", D-Phe^6,desGly^10 -GnRH ethylamide]
libido of the animals [1, 6]: significantly raised
duration of the high copulation activity ([1]; 0.5 μg/kg, ganders): maintained at this high level for one additional month
No. of daily copulations ([1]; October 1): 10
No. of daily copulations ([1]; September 3): 9
No. of daily copulations ([1]; September 10): 7
No. of daily copulations ([1]; September 17): 12
No. of daily copulations ([1]; September 24): 13
duration of the sperm production increase ([2]; 0.5 μg/kg every 2 days, 3 times, "Hungarian" and "Landes" ganders): lasting for about one month and a half
Sperm ([2]; "Hungarian" ganders, 0.5 μg/kg on January 28, 30, February 1, sampling January 15 (before treatment)): 0.19 mL
Motility of the spermatozoa [2, 7]: good
No. of spermatozoa [2, 7]: 3.2 10^6 /mm^3
Ratio of dead + deficient cells [2, 7]: 8%
Sperm [2, 7]: 0.48 mL
Motility of the spermatozoa [2, 8]: good
No. of spermatozoa [2, 8]: 3.0 10^6 /mm^3
Ratio of dead + deficient cells [2, 8]: 10%
Sperm [2, 8]: 0.56 mL
Motility of the spermatozoa [2, 9]: good
No. of spermatozoa [2, 9]: 2.9 10^6 /mm^3
Ratio of dead + deficient cells [2, 9]: 12%
Sperm [2, 9]: 0.30 mL
Motility of the spermatozoa [2, 10]: good
No. of spermatozoa [2, 10]: 2.9 10^6 /mm^3
Ratio of dead + deficient cells [2, 10]: 14%
Sperm [2, 10]: 0.23 mL
Motility of the spermatozoa [2, 11]: weak
No. of spermatozoa [2, 11]: 2.1 10^6 /mm^3
Ratio of dead + deficient cells [2, 11]: 19%
Motility of the spermatozoa [2, 12]: weak
No. of spermatozoa [2, 12]: 2.3 10^6 /mm^3
Ratio of dead + deficient cells [2, 12]: 20%
Sperm [2, 12]: 0.25 mL
Motility of the spermatozoa [2, 13]: good
No. of spermatozoa [2, 13]: 3.1 10^6 /mm^3
Ratio of dead + deficient cells [2, 13]: 17%
Sperm [2, 13]: 0.44 mL
Motility of the spermatozoa [2, 14]: good
No. of spermatozoa [2, 14]: 3.0 10^6 /mm^3
Ratio of dead + deficient cells [2, 14]: 14%
Sperm [2, 14]: 0.33 mL
Sperm ([2]; "Landes" ganders, 0.5 μg/kg on January 28, 30, February 1, sampling January 15 (before treatment)): 0.19 mL
Motility of the spermatozoa [2, 15]: medium
No. of spermatozoa [2, 15]: 2.2 10^6 /mm^3
Ratio of dead + deficient cells [2, 15]: 19%
Sperm [2, 15]: 0.32 mL
Motility of the spermatozoa [2, 16]: good
No. of spermatozoa [2, 16]: 2.0 10^6 /mm^3
Ratio of dead + deficient cells [2, 16]: 16%
Sperm [2, 16]: 0.45 mL
Motility of the spermatozoa [2, 17]: medium
No. of spermatozoa [2, 17]: 2.0 10^6 /mm^3
Ratio of dead + deficient cells [2, 17]: 19%
Sperm [2, 17]: 0.38 mL
Motility of the spermatozoa [2, 18]: medium
No. of spermatozoa [2, 18]: 2.2 10^6 /mm^3
Ratio of dead + deficient cells [2, 18]: 17%
Sperm [2, 18]: 0.35 mL
Motility of the spermatozoa [2, 19]: weak
No. of spermatozoa [2, 19]: 1.9 10^6 /mm^3
Ratio of dead + deficient cells [2, 19]: 23%
Motility of the spermatozoa [2, 20]: medium
No. of spermatozoa [2, 20]: 2.0 10^6 /mm^3
Ratio of dead + deficient cells [2, 20]: 23%
Sperm [2, 20]: 0.43 mL
Motility of the spermatozoa [2, 21]: good
No. of spermatozoa [2, 21]: 1.9 10^6 /mm^3
Ratio of dead + deficient cells [2, 21]: 20%
Sperm [2, 21]: 0.18 mL
Motility of the spermatozoa [2, 22]: medium
No. of spermatozoa [2, 22]: 1.8 10^6 /mm^3
Ratio of dead + deficient cells [2, 22]: 19%
Sperm [2, 22]: 0.20 mL
blood plasma testosterone level (in words) [3, 6]: significantly raised
Testosterone ([3]; sampling October 1): 390 ± 78 pg/mL
Testosterone ([3]; sampling September 3): 378 ± 142 pg/mL
Testosterone ([3]; sampling September 10): 470 ± 133 pg/mL
Testosterone ([3]; sampling September 17): 879 ± 145 pg/mL
Testosterone ([3]; sampling September 24): 695 ± 125 pg/mL
Sperm production ([4]; after 30 days): 0.30 ml/animal
Sperm production ([4]; after 60 days): 0.32 ml/animal
Sperm production ([4]; after 90 days): 0.34 ml/animal
Sperm production ([4]; after 120 days): 0.30 ml/animal
Sperm production [4, 23]: 0.21 ml/animal
increase of the amount of sperm usable for artificial insemination [5]: 2.5 fold
motility of spermatozoa in excess of the mean value (76%) of sperm from good males ([5]; in average, within 4 weeks after the treatment): 10%
libido of the animals ([5]; low-libido male angora rabbits, within 4 weeks after the treatment): significantly increased
sperm production relative to the average of sperm obtained from good males useful for breeding ([5]; weighed in ml, within 4 weeks after the treatment): 80%

(Asp-α-anilide)^6,desGly^10 -GnRH [Compound "B"]
Sperm production ([4]; after 30 days): 0.21 ml/animal
Sperm production ([4]; after 60 days): 0.28 ml/animal
Sperm production [4, 23]: 0.18 ml/animal
